Assay results as given in patent publication US8680108B2, “Substituted fused aryl and heteroaryl derivatives as PI3K inhibitors” (Incyte Corporation, priority 2009, dated 2014).
Where a name gives a salt, the structure may show the parent alone.

Molecular target: T1, PI3Kδ (p110δ/p85α) (Homo sapiens, UniProt O00329)
T1 construct: purchased Millipore (Bedford, Mass.)
Assay: PI3Kδ scintillation proximity assay
Type: biochemical
Description: Materials: [γ-^33P]ATP (10 mCi/mL) was purchased from Perkin-Elmer (Waltham, Mass.). Lipid kinase substrate, D-myo-Phosphatidylinositol 4,5-bisphosphate (PtdIns(4,5)P2)D (+)-sn-1,2-di-O-octanoylglyceryl, 3-O-phospho linked (PIP2), CAS 204858-53-7, was purchased from Echelon Biosciences (Salt Lake City, Utah). PI3Kδ (p110δ/p85α) was purchased from Millipore (Bedford, Mass.). ATP, MgCl2, DTT, EDTA, MOPS and CHAPS were purchased from Sigma-Aldrich (St. Louis, Mo.). Wheat Germ Agglutinin (WGA) YSi SPA Scintillation Beads was purchased from GE healthcare life sciences (Piscataway, N.J.).
Assay: The kinase reaction was conducted in polystyrene 384-well matrix white plate from Thermo Fisher Scientific in a final volume of 25 μL. Inhibitors were first diluted serially in DMSO and added to the plate wells before the addition of other reaction components. The final concentration of DMSO in the assay was 0.5%. The PI3K assays were carried out at room temperature in 20 mM MOPS, pH 6.7, 10 mM MgCl2, 5 mM DTT and CHAPS 0.03%. Reactions were initiated by the addition of ATP, the final reaction mixture consisted of 20 μM PIP2, 20 μM ATP, 0.2 μCi [γ-^33P] ATP, 4 nM PI3Kδ. Reactions were incubated for 210 minutes and terminated by the addition of 40 μL SPA beads suspended in quench buffer: 150 mM potassium phosphate pH 8.0, 20% glycerol. 25 mM EDTA, 400 μM ATP. The final concentration of SPA beads is 1.0 mg/mL. After the plate sealing, plates were shaken overnight at room temperature and centrifuged at 1800 rpm for 10 minutes, the radioactivity of the product was determined by scintillation counting on Topcount (Perkin-Elmer). IC50 determination was performed by fitting the curve of percent control activity versus the log of the inhibitor concentration using the GraphPad Prism® 3.0 software.

T1 sequence (O00329 whole entry): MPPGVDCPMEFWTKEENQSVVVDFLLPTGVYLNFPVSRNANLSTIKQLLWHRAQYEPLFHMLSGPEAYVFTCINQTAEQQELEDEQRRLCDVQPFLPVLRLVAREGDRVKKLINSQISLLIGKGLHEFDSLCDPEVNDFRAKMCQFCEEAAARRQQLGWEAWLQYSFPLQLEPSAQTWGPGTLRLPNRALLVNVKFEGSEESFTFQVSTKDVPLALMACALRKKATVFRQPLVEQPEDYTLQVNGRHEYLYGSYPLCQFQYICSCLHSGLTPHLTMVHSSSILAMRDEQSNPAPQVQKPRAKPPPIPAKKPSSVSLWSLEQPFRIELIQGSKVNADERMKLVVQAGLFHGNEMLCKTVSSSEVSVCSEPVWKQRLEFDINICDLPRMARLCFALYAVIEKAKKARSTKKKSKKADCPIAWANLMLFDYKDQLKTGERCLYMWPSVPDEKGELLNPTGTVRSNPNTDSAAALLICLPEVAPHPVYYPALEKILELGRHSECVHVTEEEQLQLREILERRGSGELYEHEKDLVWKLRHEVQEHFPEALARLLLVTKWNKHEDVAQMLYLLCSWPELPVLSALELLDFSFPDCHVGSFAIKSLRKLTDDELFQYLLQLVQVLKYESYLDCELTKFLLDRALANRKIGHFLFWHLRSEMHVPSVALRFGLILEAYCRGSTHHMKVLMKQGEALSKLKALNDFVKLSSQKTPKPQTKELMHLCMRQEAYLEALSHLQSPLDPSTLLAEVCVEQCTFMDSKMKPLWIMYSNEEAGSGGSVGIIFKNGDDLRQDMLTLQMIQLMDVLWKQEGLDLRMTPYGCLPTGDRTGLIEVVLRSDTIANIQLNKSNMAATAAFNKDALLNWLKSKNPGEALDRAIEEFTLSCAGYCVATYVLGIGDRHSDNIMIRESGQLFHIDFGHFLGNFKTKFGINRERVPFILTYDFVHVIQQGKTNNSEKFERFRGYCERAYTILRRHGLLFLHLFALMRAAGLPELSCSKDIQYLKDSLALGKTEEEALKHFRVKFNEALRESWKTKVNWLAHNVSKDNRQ
T1 sequence (P27986 whole entry partner): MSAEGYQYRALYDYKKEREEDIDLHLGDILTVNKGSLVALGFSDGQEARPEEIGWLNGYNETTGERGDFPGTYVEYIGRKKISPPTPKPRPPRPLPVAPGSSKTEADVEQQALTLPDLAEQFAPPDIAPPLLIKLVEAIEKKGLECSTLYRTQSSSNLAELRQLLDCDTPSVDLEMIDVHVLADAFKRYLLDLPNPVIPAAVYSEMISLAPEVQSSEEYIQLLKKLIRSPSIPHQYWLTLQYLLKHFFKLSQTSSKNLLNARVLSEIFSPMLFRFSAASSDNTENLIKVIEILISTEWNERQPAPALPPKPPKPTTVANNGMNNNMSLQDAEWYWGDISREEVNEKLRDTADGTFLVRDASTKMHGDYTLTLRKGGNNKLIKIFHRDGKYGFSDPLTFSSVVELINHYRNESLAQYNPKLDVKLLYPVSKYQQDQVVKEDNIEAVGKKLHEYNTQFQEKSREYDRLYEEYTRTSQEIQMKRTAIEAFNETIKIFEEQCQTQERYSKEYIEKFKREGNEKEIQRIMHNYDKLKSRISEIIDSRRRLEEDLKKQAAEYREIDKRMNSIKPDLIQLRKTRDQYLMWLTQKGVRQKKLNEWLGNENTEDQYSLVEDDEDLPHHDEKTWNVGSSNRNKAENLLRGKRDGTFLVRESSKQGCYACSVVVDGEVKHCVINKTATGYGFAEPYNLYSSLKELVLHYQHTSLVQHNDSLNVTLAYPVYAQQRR

COC[C@H]1CCCN1c1c(C(C)Nc2ncnc3[nH]cnc23)cc(Cl)c2cccnc12 (mixture of isomers) [Example 14, N-(1-{5-chloro-8-[(2R)-2-(methoxymethyl)pyrrolidin-1-yl]quinolin-7-yl}ethyl)-9H-purin-6-amine bis-trifluoroacetate]
IC50: 100 to 250 nM

CC(Nc1ncnc2[nH]cnc12)c1cc(Cl)c2cccnc2c1N1CC[C@H](F)C1 (mixture of isomers) [Example 57, N-(1-{5-Chloro-8-[(3S)-3-fluoropyrrolidin-1-yl]quinolin-7-yl}ethyl)-9H-purin-6-amine bis(trifluoroacetate)]
IC50: 250 to 500 nM

CC(Nc1ncnc2[nH]cnc12)c1cc(Cl)c2cccnc2c1N1CCC(C#N)C1 (mixture of isomers) [Example 60, 1-{5-Chloro-7-[1-(9H-purin-6-ylamino)ethyl]quinolin-8-yl}pyrrolidine-3-carbonitrile bis(trifluoroacetate)]
IC50: 100 to 250 nM

CC(Nc1ncnc2[nH]cnc12)c1cc(F)c2ccnnc2c1-c1cccc(F)c1 (single isomer, unassigned) [Example 20, N-{1-[5-Fluoro-8-(3-fluorophenyl)cinnolin-7-yl]ethyl}-9H-purin-6-amine]
IC50: < 50 nM

CC(Nc1ncnc2[nH]cnc12)c1cc(F)c2ccnnc2c1-c1cccc(F)c1 (single isomer, unassigned) [Example 21, N-{1-[5-Fluoro-8-(3-fluorophenyl)cinnolin-7-yl]ethyl}-9H-purin-6-amine]
IC50: > 1000 nM

CC(Nc1nc(N)nc2[nH]cnc12)c1cc(F)c2ccnnc2c1-c1cccc(F)c1 (single isomer, unassigned) [Example 22, N(6)-{1-[5-Fluoro-8-(3-fluorophenyl)cinnolin-7-yl]ethyl}-9H-purine-2,6-diamine]
IC50: < 50 nM

CC(Nc1ncnc2[nH]cnc12)c1cc(Cl)c2ccnnc2c1-c1cc(F)cc(F)c1 (single isomer, unassigned) [Example 23, N-{1-[5-Chloro-8-(3,5-difluorophenyl)cinnolin-7-yl]ethyl}-9H-purin-6-amine]
IC50: < 50 nM

CC(Nc1ncnc2[nH]cnc12)c1cc(Cl)c2ccnnc2c1-c1cc(F)cc(F)c1 (single isomer, unassigned) [Example 24, N-{1-[5-Chloro-8-(3,5-difluorophenyl)cinnolin-7-yl]ethyl}-9H-purin-6-amine]
IC50: > 1000 nM

CC(Nc1ncnc2[nH]cnc12)c1cc(Cl)c2ccnnc2c1-c1ccccc1F (single isomer, unassigned) [Example 25, N-{1-[5-Chloro-8-(2-fluorophenyl)cinnolin-7-yl]ethyl}-9H-purin-6-amine]
IC50: > 1000 nM

CC(Nc1ncnc2[nH]cnc12)c1cc(Cl)c2ccnnc2c1-c1ccccc1F (single isomer, unassigned) [Example 26, N-{1-[5-Chloro-8-(2-fluorophenyl)cinnolin-7-yl]ethyl}-9H-purin-6-amine]
IC50: 250 to 500 nM

CC(Nc1ncnc2[nH]cnc12)c1cc(Cl)c2ccnnc2c1-c1ccccc1F (single isomer, unassigned) [Example 27, N-{1-[5-Chloro-8-(2-fluorophenyl)cinnolin-7-yl]ethyl}-9H-purin-6-amine]
IC50: 50 to 100 nM

CC(Nc1ncnc2[nH]cnc12)c1cc(Cl)c2ccnnc2c1-c1ccccc1F (single isomer, unassigned) [Example 28, N-{1-[5-Chloro-8-(2-fluorophenyl)cinnolin-7-yl]ethyl}-9H-purin-6-amine]
IC50: < 50 nM

CC(Nc1ncnc2[nH]cnc12)c1cc(F)c2ccnnc2c1-c1cc(F)cc(F)c1 (single isomer, unassigned) [Example 29, N-{1-[8-(3,5-difluorophenyl)-5-fluorocinnolin-7-yl]ethyl}-9H-purin-6-amine trifluoroacetate]
IC50: 100 to 250 nM

CC(Nc1ncnc2[nH]cnc12)c1cc(F)c2ccnnc2c1-c1cc(F)cc(F)c1 (single isomer, unassigned) [Example 30, N-{1-[8-(3,5-difluorophenyl)-5-fluorocinnolin-7-yl]ethyl}-9H-purin-6-amine trifluoroacetate]
IC50: > 1000 nM
